Consider 64 molecules from patent US10150728B2, “Alkylene derivatives” (Shionogi & Co., Ltd., priority 2013, dated 2018).

The test deals with recombinant human ACC2 (Homo sapiens (Human), UniProt O00763). Nature of the test: Measurement of inhibitory activity on human ACC2 (MALDI-TOF MS, acetyl CoA to malonyl CoA conversion). It counts as biochemical. Particulars: Tables 155-159. Summed up: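 His-tagged human ACC2 (residues 27–2458) from baculovirus-infected Sf-9 cells was preincubated 1 h in pH 7.4 HEPES-KOH buffer with MgCl2, 6-10 mM potassium citrate, glutathione and BSA. Substrate solution held 1 mM ATP, 0.8 mM acetyl CoA and 25-50 mM bicarbonate. After 1–3 h at room temperature, malonyl CoA/(malonyl+acetyl CoA) was read by negative-mode MALDI-TOF MS; citrate, bicarbonate and time varied by enzyme lot.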
Chain of recombinant human ACC2 (O00763 27-2458): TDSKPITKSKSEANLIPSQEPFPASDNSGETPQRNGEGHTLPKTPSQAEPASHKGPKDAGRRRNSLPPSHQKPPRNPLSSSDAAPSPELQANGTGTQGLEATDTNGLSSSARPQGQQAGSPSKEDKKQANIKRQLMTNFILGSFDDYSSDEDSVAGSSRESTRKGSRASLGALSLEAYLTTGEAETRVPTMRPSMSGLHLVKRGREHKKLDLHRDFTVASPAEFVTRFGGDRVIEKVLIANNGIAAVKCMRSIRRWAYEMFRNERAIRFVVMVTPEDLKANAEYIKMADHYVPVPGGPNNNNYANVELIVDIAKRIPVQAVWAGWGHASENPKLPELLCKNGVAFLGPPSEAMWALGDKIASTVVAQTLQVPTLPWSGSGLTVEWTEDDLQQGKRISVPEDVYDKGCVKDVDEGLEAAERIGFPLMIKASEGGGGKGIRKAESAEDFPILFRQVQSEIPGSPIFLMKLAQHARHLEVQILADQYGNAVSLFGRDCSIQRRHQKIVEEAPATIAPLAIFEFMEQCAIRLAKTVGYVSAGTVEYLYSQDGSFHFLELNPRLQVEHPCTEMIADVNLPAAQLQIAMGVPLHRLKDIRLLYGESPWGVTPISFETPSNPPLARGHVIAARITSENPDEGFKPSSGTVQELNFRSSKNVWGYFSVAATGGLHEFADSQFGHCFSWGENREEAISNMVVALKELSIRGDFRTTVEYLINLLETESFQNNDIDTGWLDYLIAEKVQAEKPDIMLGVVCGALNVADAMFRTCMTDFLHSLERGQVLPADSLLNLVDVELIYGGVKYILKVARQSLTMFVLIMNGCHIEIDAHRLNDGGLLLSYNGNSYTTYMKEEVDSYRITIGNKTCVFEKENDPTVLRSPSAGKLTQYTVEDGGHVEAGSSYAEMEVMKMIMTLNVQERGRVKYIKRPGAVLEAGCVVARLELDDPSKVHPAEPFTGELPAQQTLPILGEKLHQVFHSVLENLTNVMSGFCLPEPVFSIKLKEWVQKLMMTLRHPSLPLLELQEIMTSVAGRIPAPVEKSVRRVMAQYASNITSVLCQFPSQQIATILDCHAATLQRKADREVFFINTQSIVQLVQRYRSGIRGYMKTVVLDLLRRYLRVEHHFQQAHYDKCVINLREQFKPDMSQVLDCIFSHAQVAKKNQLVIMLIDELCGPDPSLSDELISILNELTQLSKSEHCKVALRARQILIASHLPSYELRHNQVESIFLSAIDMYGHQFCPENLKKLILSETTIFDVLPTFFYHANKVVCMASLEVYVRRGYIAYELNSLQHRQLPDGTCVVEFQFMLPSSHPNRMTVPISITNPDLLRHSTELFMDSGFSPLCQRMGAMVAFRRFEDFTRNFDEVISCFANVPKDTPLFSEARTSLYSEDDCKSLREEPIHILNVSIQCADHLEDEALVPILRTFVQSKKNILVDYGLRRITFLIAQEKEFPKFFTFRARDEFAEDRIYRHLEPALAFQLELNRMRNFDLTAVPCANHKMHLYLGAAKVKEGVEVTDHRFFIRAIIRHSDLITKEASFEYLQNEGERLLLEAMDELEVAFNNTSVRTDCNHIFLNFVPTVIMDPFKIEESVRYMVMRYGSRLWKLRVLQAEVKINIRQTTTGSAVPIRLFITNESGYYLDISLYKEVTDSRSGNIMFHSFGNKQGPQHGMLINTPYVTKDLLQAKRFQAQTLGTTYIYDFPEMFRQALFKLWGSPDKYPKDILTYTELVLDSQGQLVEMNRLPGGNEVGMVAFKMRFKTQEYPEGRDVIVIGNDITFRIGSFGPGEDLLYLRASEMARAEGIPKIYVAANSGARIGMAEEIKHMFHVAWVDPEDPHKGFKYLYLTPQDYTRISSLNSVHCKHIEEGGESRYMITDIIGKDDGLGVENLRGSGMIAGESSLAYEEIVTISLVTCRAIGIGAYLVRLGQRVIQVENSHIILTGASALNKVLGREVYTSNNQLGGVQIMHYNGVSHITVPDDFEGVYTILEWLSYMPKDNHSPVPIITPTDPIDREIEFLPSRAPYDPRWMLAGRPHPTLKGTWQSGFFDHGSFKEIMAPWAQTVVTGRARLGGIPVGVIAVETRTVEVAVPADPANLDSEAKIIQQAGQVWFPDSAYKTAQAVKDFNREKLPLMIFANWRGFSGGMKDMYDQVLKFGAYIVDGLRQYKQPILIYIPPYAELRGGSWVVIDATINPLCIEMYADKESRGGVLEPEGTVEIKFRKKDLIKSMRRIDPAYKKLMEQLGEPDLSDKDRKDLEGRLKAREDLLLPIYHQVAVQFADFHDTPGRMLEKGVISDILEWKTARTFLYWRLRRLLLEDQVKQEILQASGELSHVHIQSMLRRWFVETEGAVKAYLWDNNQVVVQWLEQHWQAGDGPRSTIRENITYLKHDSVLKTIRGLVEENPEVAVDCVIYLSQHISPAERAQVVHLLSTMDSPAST
As for `CC(=O)N[C@@H](C)CO[C@H]1CC[C@H](Oc2ccc3nc(N4CCC(F)(F)CC4)sc3c2F)CC1` [Compound I-188], the IC50 (usually the midpoint of a concentration-inhibition curve) is 41 nM.

For `CC(=O)N[C@@H](C)CO[C@H]1CC[C@H](Oc2ccc3nc(N4CCC(F)(F)C4)sc3c2F)CC1` [Compound I-189], the concentration for half-maximal inhibition (IC50) is 27 nM.

Take `CCN(C)c1nc2ccc(O[C@H]3CC[C@H](OC[C@H](C)NC(C)=O)CC3)c(F)c2s1` [Compound I-190]: the IC50 was 73 nM.

As for `CC(=O)N[C@@H](C)CO[C@H]1C[C@H](COc2ccc3nc(OC[C@H](C)F)sc3n2)C1` [Compound I-191], the IC50 was 12 nM.

As to `CC(=O)N[C@@H](C)CO[C@H]1C[C@H](COc2ccc3nc(OCC4(C#N)CC4)sc3n2)C1` [Compound I-192], the IC50 was 61 nM.

As to `CC(=O)N[C@@H](C)CO[C@H]1C[C@H](COc2ccc3nc(OCC(C)(F)F)sc3n2)C1` [Compound I-193], the IC50 is 12 nM.

`CC(=O)N[C@@H](C)CO[C@H]1C[C@H](COc2ccc3nc(OC(C)CF)sc3n2)C1` (stereo partly shown) [Compound I-194]: the IC50 is 12 nM.

For the molecule `CC(=O)N[C@@H](C)CO[C@H]1C[C@H](COc2ccc3nc(OCC4(F)COC4)sc3n2)C1` [Compound I-195], the IC50 came to 28 nM.

Regarding `CC(=O)N[C@@H](C)CO[C@H]1C[C@H](COc2ccc3nc(OCC(C)C)sc3n2)C1` [Compound I-196], the IC50 is 12 nM.

Turning to `CC(=O)N[C@@H](C)CO[C@H]1C[C@H](COc2ccc3nc(OCC4CC4(F)F)sc3n2)C1` (stereo partly shown) [Compound I-197], the IC50 worked out at 15 nM.

For the molecule `CC(=O)N[C@@H](C)CO[C@H]1C[C@H](COc2ccc3nc(OCC4(C)CC4)sc3n2)C1` [Compound I-198], the IC50 was 5 nM.

As for `CC(=O)N[C@@H](C)CO[C@H]1C[C@H](COc2ccc3nc(OCC4CCO4)sc3n2)C1` (stereo partly shown) [Compound I-199], the IC50 stood at 121 nM.

In the case of `CC(=O)N[C@@H](C)CO[C@H]1C[C@H](COc2ccc3nc(OC4(C)CC4)sc3n2)C1` [Compound I-200], the IC50 was 30 nM.

As for `CC(=O)N[C@@H](C)CO[C@H]1CC[C@](F)(COc2ccc3nc(OCC4CC4)sc3n2)CC1` [Compound I-201], the IC50 was 17 nM.

Regarding `CC(=O)N[C@@H](C)CO[C@H]1C[C@](F)(COc2ccc3nc(OC(C)CF)sc3n2)C1` (stereo partly shown) [Compound I-202], the IC50 was determined as 66 nM.

For `CC(=O)N[C@@H](C)CO[C@H]1C[C@](F)(COc2ccc3nc(OCC(C)(F)F)sc3n2)C1` [Compound I-203], the IC50 was found to be 48 nM.

As to `CC(=O)N[C@@H](C)CO[C@H]1C[C@](F)(COc2ccc3nc(Oc4ccc(F)cc4)sc3n2)C1` [Compound I-204], the IC50 was 113 nM.

With `C[C@@H](CO[C@H]1C[C@H](COc2ccc3nc(OCC(F)F)sc3n2)C1)NC(N)=O` [Compound I-205], the IC50 is 25 nM.

Consider `C[C@@H](CO[C@H]1C[C@H](COc2ccc3nc(OCC(F)F)sc3n2)C1)NC(=O)O` [Compound I-206], for which the IC50 is 79 nM.

As for `C[C@@H](CO[C@H]1C[C@H](COc2ccc3nc(OCC(F)F)sc3n2)C1)NC(=O)C(F)(F)F` [Compound I-207], the IC50 was found to be 11 nM.

For the molecule `CC(=O)N[C@@H](C)CO[C@H]1CC[C@H](Oc2ccc3nc(N4CC(F)(F)C4)sc3n2)CC1` [Compound I-208], the IC50 is 8 nM.

Turning to `CC(=O)N[C@@H](C)CO[C@H]1CC[C@H](Oc2ccc3nc(OC(C)C)sc3n2)CC1` [Compound I-209], the IC50 turned out to be 12 nM.

In the case of `CCOc1nc2cnc(O[C@H]3CC[C@H](OC[C@H](C)NC(C)=O)CC3)c(F)c2s1` [Compound I-210], the IC50 worked out at 6 nM.

As to `CC(=O)N[C@@H](C)CO[C@H]1C[C@H](COc2ccc3nc(OCC4(C)COC4)sc3n2)C1` [Compound I-211], the IC50 is 97 nM.

Consider `CCOc1nc2cc(Cl)c(OC[C@H]3C[C@H](OC[C@H](C)NC(C)=O)C3)nc2s1` [Compound I-212], for which the IC50 was found to be 17 nM.

For `CC(=O)N[C@@H](C)CO[C@H]1C[C@H](COc2nc3sc(OCC(F)F)nc3cc2Cl)C1` [Compound I-213], the IC50 turned out to be 28 nM.

Regarding `CCOc1nc2c(Cl)c(F)c(OC[C@H]3C[C@H](OC[C@H](C)NC(C)=O)C3)nc2s1` [Compound I-214], the IC50 came to 39 nM.

With `CC(=O)N[C@@H](C)CO[C@H]1C[C@H](COc2ccc3nc(N4CC(F)(F)C4)sc3n2)C1` [Compound I-215], the IC50 is 21 nM.

Take `CCOc1nc2ccc(OC[C@H]3C[C@@H](OC[C@H](C)NC(C)=O)C3)nc2s1` [Compound I-216]: the IC50 came to 8 nM.

In the case of `CC(=O)N[C@@H](C)CO[C@H]1C[C@@H](COc2ccc3nc(OCC(F)F)sc3n2)C1` [Compound I-217], the IC50 came out at 8 nM.

With `CC(=O)N[C@@H](C)CO[C@H]1C[C@H](COc2ccc3nc(OC4CC(F)(F)C4)sc3n2)C1` [Compound I-218], the IC50 was determined as 8 nM.

Regarding `CC(=O)N[C@@H](C)CO[C@H]1CC[C@H](Oc2cc3sc(OC4CC(F)(F)C4)nc3cn2)CC1` [Compound I-219], the IC50 came to 4 nM.

Consider `CC(=O)N[C@@H](C)CO[C@H]1CC[C@H](Oc2cc3sc(OCC4CC4(F)F)nc3cn2)CC1` (stereo partly shown) [Compound I-220], for which the IC50 amounted to 9 nM.

For the molecule `CC(=O)N[C@@H](C)CO[C@H]1CC[C@H](Oc2cc3sc(OCc4ccc(F)cc4)nc3cn2)CC1` [Compound I-221], the IC50 came to 172 nM.

As for `CC(=O)N[C@@H](C)CO[C@H]1CC[C@H](Oc2cc3sc(OCC4(F)COC4)nc3cn2)CC1` [Compound I-222], the IC50 came to 246 nM.

In the case of `CC(=O)N[C@@H](C)CO[C@H]1CC[C@H](Oc2cc3sc(OC(C)CF)nc3cn2)CC1` (stereo partly shown) [Compound I-223], the IC50 came to 48 nM.

For `CC(=O)N[C@@H](C)CO[C@H]1CC[C@H](Oc2cc3sc(OC4CC4)nc3cn2)CC1` [Compound I-224], the IC50 was 34 nM.

For the molecule `CCOc1nc2ccc(OC[C@]3(F)C[C@H](OC[C@H](C)NC(C)=O)C3)nc2s1` [Compound I-225], the IC50 was 48 nM.

Regarding `CC(=O)N[C@@H](C)CO[C@H]1C[C@@](F)(COc2ccc3nc(OCC(F)F)sc3n2)C1` [Compound I-226], the IC50 worked out at 103 nM.

On to `CC(=O)N[C@@H](C)CO[C@H]1C[C@H](COc2ccc3nc(N4CCC(F)(F)CC4)sc3n2)C1` [Compound I-227], for which the IC50 is 36 nM.

In the case of `CC(=O)N[C@@H](C)CO[C@H]1C[C@H](COc2ccc3nc(N4CCC(F)(F)C4)sc3n2)C1` [Compound I-228], the IC50 was 27 nM.

For `CC(=O)N[C@@H](C)CO[C@H]1C[C@H](COc2ccc3nc(N4CCOCC4)sc3n2)C1` [Compound I-229], the IC50 was 113 nM.

For the molecule `CCN(C)c1nc2ccc(OC[C@H]3C[C@H](OC[C@H](C)NC(C)=O)C3)nc2s1` [Compound I-230], the IC50 was 54 nM.

With `CC(=O)N[C@@H](C)CO[C@H]1C[C@H](COc2ccc3nc(N(C)C)sc3n2)C1` [Compound I-231], the IC50 was found to be 183 nM.

For `CCOc1nc2ccc(O[C@H]3CC[C@H](OC[C@H](CC)NC(C)=O)CC3)c(F)c2s1` [Compound I-232], the IC50 was 21 nM.

As for `CCOc1nc2ccc(OC[C@H]3C[C@H](OC[C@H](CC)NC(C)=O)C3)c(F)c2s1` [Compound I-233], the IC50 was found to be 84 nM.

On to `CC(=O)N[C@@H](C)CO[C@H]1CC[C@H](Oc2ncc3nc(N4CCC4)sc3c2F)CC1` [Compound I-234], for which the IC50 came out at 8 nM.

`CC(=O)N[C@@H](C)CO[C@H]1CC[C@H](Oc2ncc3nc(N4CC(F)C4)sc3c2F)CC1` [Compound I-235]: the IC50 worked out at 22 nM.

`CC(=O)N[C@@H](C)CO[C@H]1CC[C@H](Oc2ccc3nc(N4CCCC(F)(F)C4)sc3c2F)CC1` [Compound I-236]: the IC50 was found to be 102 nM.

Turning to `CC(=O)N[C@@H](C)CO[C@H]1CC[C@H](Oc2ccc3nc(N4CCC4c4ccccc4)sc3c2F)CC1` (stereo partly shown) [Compound I-237], the IC50 was determined as 891 nM.

As for `CC(=O)N[C@@H](C)CO[C@H]1CC[C@H](Oc2ncc3nc(OC4CC4)sc3c2F)CC1` [Compound I-238], the IC50 worked out at 4 nM.

`CC(=O)N[C@@H](C)CO[C@H]1CC[C@H](Oc2ncc3nc(OCC(F)F)sc3c2F)CC1` [Compound I-239]: the IC50 worked out at 8 nM.

As to `CC(=O)N[C@@H](C)CO[C@H]1CC[C@H](Oc2ncc3nc(OC(C)C)sc3c2F)CC1` [Compound I-240], the IC50 turned out to be 7 nM.

Consider `CC(=O)N[C@@H](C)CO[C@H]1CC[C@H](Oc2ncc3nc(N4CC(F)(F)C4)sc3c2F)CC1` [Compound I-241], for which the IC50 is 173 nM.

As for `CC(=O)N[C@@H](C)CO[C@H]1C[C@H](COc2ccc3nc(OC4CCCC4)sc3n2)C1` [Compound I-242], the IC50 was found to be 7 nM.

As to `CC(=O)N[C@@H](C)CO[C@H]1C[C@H](COc2ccc3nc(OC4CCOCC4)sc3n2)C1` [Compound I-243], the IC50 is 28 nM.

As to `CC(=O)N[C@@H](C)CO[C@H]1C[C@H](COc2ccc3nc(OC4CCCCC4)sc3n2)C1` [Compound I-244], the IC50 worked out at 7 nM.

For the molecule `CC(=O)N[C@@H](C)CO[C@H]1C[C@H](COc2ccc3nc(OC4CCC4)sc3n2)C1` [Compound I-245], the IC50 is 4 nM.

For `CC(=O)N[C@@H](C)CO[C@H]1C[C@H](COc2ccc3nc(O[C@H]4CCOC4)sc3n2)C1` [Compound I-246], the IC50 came out at 47 nM.

For the molecule `CC(=O)N[C@@H](C)CO[C@H]1C[C@H](COc2ccc3nc(O[C@@H]4CCOC4)sc3n2)C1` [Compound I-247], the IC50 worked out at 17 nM.

`CC(=O)N[C@@H](C)CO[C@H]1C[C@H](COc2ccc3nc(OC4CCSCC4)sc3n2)C1` [Compound I-248]: the 50% inhibitory concentration (IC50) turned out to be 9 nM.

As for `CC(=O)N[C@@H](C)CO[C@H]1C[C@H](COc2ccc3nc(OC4CCSC4)sc3n2)C1` (stereo partly shown) [Compound I-249], the IC50 worked out at 8 nM.

For the molecule `COc1nc2ccc(OC[C@H]3C[C@H](OC[C@H](C)NC(C)=O)C3)nc2s1` [Compound I-250], the IC50 was found to be 31 nM.

`CC(=O)N[C@@H](C)CO[C@H]1C[C@@H](COc2ccc3nc(N4CC(F)(F)C4)sc3n2)C1` [Compound I-251]: the IC50 was 22 nM.
